Laboratory results reported in patent US20120135989A1, “AZAINDOLE DERIVATIVE” (CRYSTALGENOMICS, INC., priority 2010, published 2012).

Target: T1, human Cdc7/human ASK conjugated protein (Homo sapiens, UniProt O00311)
T1 construct: purchased CARNA BIOSCIENCES
Assay: Cdc7 protein kinase inhibitory action (Cdc7-ASK kinase activity, 32P-labeled MCM2)
Format: biochemical
Settings: substrate mouse MCM2-4(his)-6-7(his) conjugated protein, 0.1 mM ATP, 30° C. for 45 minutes; read-out: Activity (uM) ELISA (IC50)
Description: Cdc7 protein kinase inhibitory action of the (di)azaindole derivatives shown in Table 4 was evaluated according to the following operations.
As a substrate for evaluating the enzymatic activity, mouse MCM2-4(his)-6-7 (his) conjugated protein was synthesized. First, the following genes were cloned into a pAcUW31 vector (Pharmingen).
Mouse MCM2 (Genbank/EMBL No. D86725);
N-His-mouse MCM4 (Genbank/EMBL No. D26089, a His6 tag was added to an N-terminal);
Mouse MCM6 (Genbank/EMBL No. D86726), and
N-His-mouse MCM7 (Genbank/EMBL No. D26091, a His6 tag was added to an N-terminal).
The Mouse MCM2 gene and the N-His-mouse MCM7 gene were inserted into the BamHI site and the EcoRI site of the pAcUW31 vector (Mom2-7 Vector), respectively. The mouse MCM6 gene and the N-His-mouse MCM4 gene were inserted into the BamHI site and the EcoRI site of the pAcUW31 vector (MGm-4-6 Vector), respectively. Then, in order to produce a recombinant mouse MCM2-7 (his) and mouse MCM4 (his)-6 Baculovirus, BaculoGold AoNPV Baculovirus DNA (BD/Pharmingen) and an Mcm2-7 Vector or an Mcm-4-6 Vector were cotransfected to SD insect cells. The obtained Mcm2-7 and Mom-4-6 virus were coinfected to Hi5 insect cells. Thereby, a mouse MCM2-4 (his)-6-7 (his) conjugated protein was obtained. Purified mouse MCM2-4 (his)-6-7 (his) conjugated protein (0.5 μg) was used as a substrate.
The substrate (mouse MCM2-4(his)-6-7(his) conjugated protein) (0.5 μg) and kinase enzyme (human Cdc7/human ASK conjugated protein, CARNA BIOSCIENCES) (0.1 μg) were mixed in a microtube. A kinase reaction buffer containing 0.1 μL of γ-^32P ATP (Perkin Elmer) was added as a tracer into the same microtube. The composition of the kinase buffer includes the followings.
40 mM HEPES-KOH buffer pH 7.6,
Furthermore, 0.5 μL of each of the test compounds ((di)azaindole derivatives 10 μM, 100 μM, and 1000 μM, respectively) was added and reacted at 30° C. for 45 minutes. After the reaction, the substrate was separated by SDS-PAGE method, and protein was stained by the silver staining method (2D-silver staining reagent H “Daiichi,” Daiichi Pure Chemicals Co., Ltd.).
The radioactivity of ^32P-labeled MCM2 protein was detected by autoradiography, and the radioactivity of the band of MCM2 protein was measured by a liquid scintillation counter (LSC-6100, ALOKA). As to the Cdc7-ASK kinase activity, the radioactivity at the time when the each of the test compounds was added was calculated in percent when the radioactivity at the time when DMSO (0.5 μL) was added instead of the test compound (0.5 μL) that had been added immediately before the reaction was made to be 100%. Based on the obtained results, IC 50 value of each test compound was calculated. IC50 with respect to Cdc7-ASK kinase of the main (di)azaindole derivatives shown in Table 5 was about 0.001 μM to 0.008 μM.

T1 sequence (O00311 whole entry): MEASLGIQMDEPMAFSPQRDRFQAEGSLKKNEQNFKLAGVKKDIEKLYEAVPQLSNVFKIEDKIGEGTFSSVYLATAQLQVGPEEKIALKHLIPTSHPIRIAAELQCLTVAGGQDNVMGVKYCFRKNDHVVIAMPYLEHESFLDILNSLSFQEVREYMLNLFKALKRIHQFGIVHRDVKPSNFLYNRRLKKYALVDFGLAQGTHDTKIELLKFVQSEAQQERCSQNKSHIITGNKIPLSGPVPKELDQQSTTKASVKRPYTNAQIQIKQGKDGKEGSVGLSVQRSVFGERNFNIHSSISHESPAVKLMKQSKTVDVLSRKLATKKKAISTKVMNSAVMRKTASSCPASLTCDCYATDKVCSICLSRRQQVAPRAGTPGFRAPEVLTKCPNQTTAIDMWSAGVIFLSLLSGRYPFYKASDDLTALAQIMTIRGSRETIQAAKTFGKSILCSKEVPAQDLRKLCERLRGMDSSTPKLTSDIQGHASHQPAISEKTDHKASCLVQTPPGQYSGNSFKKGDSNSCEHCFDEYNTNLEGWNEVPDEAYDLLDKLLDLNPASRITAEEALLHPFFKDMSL
T1 sequence (Q9UBU7 whole entry partner): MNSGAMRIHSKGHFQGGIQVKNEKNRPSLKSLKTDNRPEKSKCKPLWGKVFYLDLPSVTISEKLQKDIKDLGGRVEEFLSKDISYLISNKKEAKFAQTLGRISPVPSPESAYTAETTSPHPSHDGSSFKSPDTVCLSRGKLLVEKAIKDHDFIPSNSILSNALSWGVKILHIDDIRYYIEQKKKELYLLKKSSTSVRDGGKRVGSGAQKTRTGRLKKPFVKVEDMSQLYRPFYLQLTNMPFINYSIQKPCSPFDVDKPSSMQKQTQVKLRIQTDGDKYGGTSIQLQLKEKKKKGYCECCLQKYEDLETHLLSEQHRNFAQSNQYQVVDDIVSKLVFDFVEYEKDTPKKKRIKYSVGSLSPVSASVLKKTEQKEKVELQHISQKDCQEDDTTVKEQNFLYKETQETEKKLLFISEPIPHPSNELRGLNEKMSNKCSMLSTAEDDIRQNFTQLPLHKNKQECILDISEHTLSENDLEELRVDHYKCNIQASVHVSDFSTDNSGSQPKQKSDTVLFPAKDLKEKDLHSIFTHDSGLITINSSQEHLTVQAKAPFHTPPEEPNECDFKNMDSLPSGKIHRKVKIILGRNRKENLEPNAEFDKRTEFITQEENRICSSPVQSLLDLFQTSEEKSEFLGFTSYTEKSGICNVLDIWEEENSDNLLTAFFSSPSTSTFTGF

`COc1ccc(/N=C2/NC(=O)/C(=C/c3c[nH]c4ncccc34)S2)c(C)c1` [Compound 1, (2Z,5Z)-2-(4-methoxy-2-methylphenyl)azamethylene-5-(1H-pyrrolo[2,3-b]pyridin-3-yl)methylene-1,3-thiazolidin-4-one] and `Cc1ccc(/N=C2/NC(=O)/C(=C/c3c[nH]c4ncccc34)S2)c(C)c1` [Compound 2, (2Z,5Z)-2-(2,4-dimethylphenyl)azamethylene-5-(1H-pyrrolo[2,3-b]pyridin-3-yl)methylene-1,3-thiazolidin-4-one] are within 1.5-fold of each other in IC50: 0.0012 µM for the first, 0.001 µM for the second.

Going from `CN(C)CCOc1ccc(/N=C2/NC(=O)/C(=C/c3c[nH]c4ncncc34)S2)c(C(F)(F)F)c1` [Compound 19, (2Z,5Z)-2-{4-(2-dimethylamino)ethoxy-2-trifluoromethylphenyl}azamethylene-5-(7H-pyrrolo[2,3-d]pyrimidin-5-yl)methylene-1,3-thiazolidin-4-one] to `CN(C)CCOc1ccc(/N=C2/NC(=O)/C(=C/c3c[nH]c4ncccc34)S2)c(C(F)(F)F)c1` [Compound 13, (2Z,5Z)-2-{4-(2-dimethylamino)ethoxy-2-trifluoromethylphenyl}azamethylene-5-(1H-pyrrolo[2,3-b]pyridin-3-yl)methylene-1,3-thiazolidin-4-one], the IC50 falls from 0.006 µM to 0.003 µM (2-fold). The second is the more potent here.

`CN1CCC(Oc2ccc(/N=C3/NC(=O)/C(=C/c4c[nH]c5ncccc45)S3)c(Cl)c2)C1` (centres unmarked) [Compound 12, (2Z,5Z)-2-{2-chloro-4-(1-methylpyrrolidin-3-yl)oxyphenyl}azamethylene-5-(1H-pyrrolo[2,3-b]pyridin-3-yl)methylene-1,3-thiazolidin-4-one] and `CN1CCC(Oc2ccc(/N=C3/NC(=O)/C(=C/c4c[nH]c5ncccc45)S3)c(Cl)c2)CC1` [Compound 22, (2Z,5Z)-2-{2-chloro-4-(1-methyl-piperidin-4-yl)oxyphenyl}azamethylene-5-(1H-pyrrolo[2,3-b]pyridin-3-yl)methylene-1,3-thiazolidin-4-one] are the same in IC50: 0.001 µM for the first, 0.001 µM for the second.

First: Cc1cc(OCCN(C)C)ccc1/N=C1/NC(=O)/C(=C/c2c[nH]c3ncncc23)S1 [Compound 11, (2Z,5Z)-2-{4-(2-dimethylamino)ethoxy-2-methylphenyl}azamethylene-5-(7H-pyrrolo[2,3-d]pyrimidin-5-yl)methylene-1,3-thiazolidin-4-one]
Second: CN(C)CCOc1ccc(/N=C2/NC(=O)/C(=C/c3c[nH]c4ncncc34)S2)c(Cl)c1 [Compound 17, (2Z,5Z)-2-{2-chloro-4-(2-dimethylamino)ethoxyphenyl}azamethylene-5-(7H-pyrrolo[2,3-d]pyrimidin-5-yl)methylene-1,3-thiazolidin-4-one]
The IC50 of the first is 2.5-fold higher: 0.005 µM for the first, 0.002 µM for the second.

Going from `CN1CCC(Oc2ccc(/N=C3/NC(=O)/C(=C/c4c[nH]c5ncncc45)S3)c(Cl)c2)C1` (centres unmarked) [Compound 18, (2Z,5Z)2-{2-chloro-4-(1-methylpyrrolidin-3-yl)oxyphenyl}azamethylene-5-(7H-pyrrolo[2,3-d]pyrimidin-5-yl)methylene-1,3-thiazolidin-4-one] to `CN1CCC(Oc2ccc(/N=C3/NC(=O)/C(=C/c4c[nH]c5ncncc45)S3)c(Cl)c2)CC1` [Compound 21, (2Z,5Z)-2-{2-chloro-4-(1-methyl-piperidin-4-yl)oxyphenyl}azamethylene-5-(7H-pyrrolo[2,3-d]pyrimidin-5-yl)methylene-1,3-thiazolidin-4-one], the IC50 rises from 0.002 µM to 0.003 µM (1.5-fold).

`Cc1cc(OC2CCN(C)C2)ccc1/N=C1/NC(=O)/C(=C/c2c[nH]c3ncncc23)S1` (centres unmarked) [Compound 15, (2Z,5Z)-2-{4-(1-methylpyrrolidin-3-yl)oxy-2-methylphenyl}azamethylene-5-(7H-pyrrolo[2,3-d]pyrimidin-5-yl)methylene-1,3-thiazolidin-4-one] and `Cc1cc(OC2CCN(C)CC2)ccc1/N=C1/NC(=O)/C(=C/c2c[nH]c3ncncc23)S1` [Compound 16, (2Z,5Z)-2-{4-(1-methyl-piperidin-4-yl)oxy-2-methylphenyl}azamethylene-5-(7H-pyrrolo[2,3-d]pyrimidin-5-yl)methylene-1,3-thiazolidin-4-one] are within 1.5-fold of each other in IC50: 0.008 µM for the first, 0.006 µM for the second.

`Cc1cc(OCCN(C)C)ccc1/N=C1/NC(=O)/C(=C/c2c[nH]c3ncccc23)S1` [Compound 5, (2Z,5Z)-2-{4-(2-dimethylamino)ethoxy-2-methylphenyl}azamethylene-5-(1H-pyrrolo[2,3-b]pyridin-3-yl)methylene-1,3-thiazolidin-4-one] and `CN(C)CCOc1ccc(/N=C2/NC(=O)/C(=C/c3c[nH]c4ncccc34)S2)c(Cl)c1` [Compound 10, (2Z,5Z)-2-{2-chloro-4-(2-dimethylamino)ethoxyphenyl}azamethylene-5-(1H-pyrrolo[2,3-b]pyridin-3-yl)methylene-1,3-thiazolidin-4-one] are within 1.5-fold of each other in IC50: 0.0019 µM for the first, 0.002 µM for the second.

First: CN1CCC(Oc2ccc(/N=C3/NC(=O)/C(=C/c4c[nH]c5ncccc45)S3)c(C(F)(F)F)c2)CC1 [Compound 23, (2Z,5Z)-2-{4-(1-methyl-piperidin-4-yl)oxy-2-trifluoromethylphenyl}azamethylene-5-(1H-pyrrolo[2,3-b]pyridm-3-yl)methylene-1,3-thiazolidin-4-one]
Second: CN1CCC(Oc2ccc(/N=C3/NC(=O)/C(=C/c4c[nH]c5ncccc45)S3)c(C(F)(F)F)c2)C1 (centres unmarked) [Compound 14, (2Z,5Z)-2-{4-(1-methylpyrrolidin-3-yl)oxy-2-trifluoromethylphenyl}azamethylene-5-(1H-pyrrolo[2,3-b]pyridin-3-yl)methylene-1,3-thiazolidin-4-one]
The IC50 of the first is 1.5-fold higher: 0.003 µM for the first, 0.002 µM for the second. The second is the more potent here.

Going from `Cc1cc(O)ccc1/N=C1/NC(=O)/C(=C/c2c[nH]c3ncccc23)S1` [Compound 3, (2Z,5Z)-2-(4-hydroxy-2-methylphenyl)azamethylene-5-(1H-pyrrolo[2,3-b]pyridin-3-yl)methylene-1,3-thiazolidin-4-one] to `Cc1cc(OC2CCN(C)C2)ccc1/N=C1/NC(=O)/C(=C/c2c[nH]c3ncccc23)S1` (centres unmarked) [Compound 6, (2Z,5Z)-2-{4-(1-methylpyrrolidin-3-yl)oxy-2-methylphenyl}azamethylene-5-(1H-pyrrolo[2,3-b]pyridin-3-yl)methylene-1,3-thiazolidin-4-one], the IC50 rises from 0.0014 µM to 0.003 µM (2.1-fold). The first is the more potent here.

Going from `O=C1N/C(=N/c2ccc(C(=O)O)cc2)S/C1=C\c1c[nH]c2ncccc12` [Compound 4, (2Z,5Z)-2-(4-carboxyphenyl)azamethylene-5-(1H-pyrrolo[2,3-b]pyridin-3-yl)methylene-1,3-thiazolidin-4-one] to `Cc1cc(OCCN2CCN(C)CC2)ccc1/N=C1/NC(=O)/C(=C/c2c[nH]c3ncccc23)S1` [Compound 7, (2Z,5Z)-2-[4-{2-(4-methylpiperazin-1-yl)}ethoxy-2-methylphenyl]azamethylene-5-(1H-pyrrolo[2,3-b]pyridin-3-yl)methylene-1,3-thiazolidin-4-one], the IC50 falls from 0.018 µM to 0.0021 µM (8.6-fold). The second is the more potent here.

`CN1CCC(Oc2ccc(/N=C3/NC(=O)/C(=C/c4c[nH]c5ncncc45)S3)c(C(F)(F)F)c2)C1` (centres unmarked) [Compound 20, (2Z,5Z)-2-{4-(1-methylpyrrolidin-3-yl)oxy-2-trifluoromethylphenyl}azamethylene-5-(7H-pyrrolo[2,3-d]pyrimidin-5-yl)methylene-1,3-thiazolidin-4-one] was tested, and the IC50 was 0.007 µM.

Target: T1, human Cdc7/human ASK conjugated protein
Assay: as above
Format: biochemical
Settings: substrate mouse MCM2-4(his)-6-7(his) conjugated protein, 0.1 mM ATP, 30° C. for 45 minutes; read-out: Activity (uM) ELISA (IC50)
Remark: another data set of the same source

Compared with “(2Z,5Z)-2-{4-(1-methyl-piperidin-4-yl)oxy-2-methylphenyl}azamethylene-5-(1H-pyrrolo[2,3-b]pyridin-3-yl)methylene-1,3-thiazolidin-4-one [Compound 8]”, `Cc1cc(OCCN2CCOCC2)ccc1/N=C1/NC(=O)/C(=C/c2c[nH]c3ncccc23)S1` [Compound 9, (2Z,5Z)-2-{4-(2-morpholino)ethoxy-2-metlhylphenyl}azamethylene-5-(1H-pyrrolo[2,3-b]pyridin-3-yl)methylene-1,3-thiazolidin-4-one] is 1.5-fold higher in IC50: 0.0011 µM for the first, 0.0017 µM for the second. The first is the more potent here.
